Our source for the EC50 and IC50 values is patent publication US20230219969A1 (priority 2020, published 2023).

One assay deals with T1, 5-HT2C edited (accession number AAF35842.1) (Homo sapiens, UniProt P28335, I156V/I160V/N158S). Description: cell-based.
Target sequence in this assay (P28335 33-458 I156V/N158S/I160V limits assumed): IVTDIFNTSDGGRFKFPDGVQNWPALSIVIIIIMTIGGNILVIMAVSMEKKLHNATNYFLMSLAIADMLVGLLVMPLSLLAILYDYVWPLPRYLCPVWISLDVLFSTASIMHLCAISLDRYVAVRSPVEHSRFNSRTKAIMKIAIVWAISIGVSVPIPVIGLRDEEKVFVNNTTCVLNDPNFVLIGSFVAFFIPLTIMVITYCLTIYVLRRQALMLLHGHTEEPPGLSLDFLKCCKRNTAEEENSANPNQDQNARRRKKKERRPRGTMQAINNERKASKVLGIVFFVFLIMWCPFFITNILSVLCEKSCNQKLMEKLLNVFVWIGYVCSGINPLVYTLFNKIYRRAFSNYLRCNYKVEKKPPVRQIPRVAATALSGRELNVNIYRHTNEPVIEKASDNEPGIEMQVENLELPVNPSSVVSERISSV
One may read the EC50 as the concentration at which the effect is half-maximal. Read a high EC50 as a need for much substance. With `CN(C)CC(=O)n1ccc2cc(F)ccc21` [Example 43, 2-(dimethylamino)-1-(5-fluoro-1H-indol-1-yl)ethan-1-one], the EC50 was more than 10 µM.
The compound `COc1ccc2c(ccn2[C@H]2C[C@@H](N(C)C)C2)c1` [Example 24, (1s,3s)-3-(5-methoxy-1H-indol-1-yl)-N,N-dimethylcyclobutan-1-amine] had an EC50 of more than 10 µM.
As for `COc1ccc2c(ccn2C(=O)[C@@H](C)N(C)C)c1` [Example 47, (R)-2-(dimethylamino)-1-(5-methoxy-1H-indol-1-yl)propan-1-one], the EC50 was more than 10 µM.
`COc1ccc2c(ccn2C[C@@H](C)N(C)C)n1` [Example 30, (R)-1-(5-methoxy-1H-pyrrolo[3,2-b]pyridin-1-yl)-N,N-dimethylpropan-2-amine] returned an EC50 of more than 10 µM.
As for `CN[C@H](C)Cn1ccc2nc(OC)ccc21` [Example 29, (R)-1-(5-methoxy-1H-pyrrolo[3,2-b]pyridin-1-yl)-N-methylpropan-2-amine], the concentration giving a half-maximal response (EC50) is more than 10 µM.

A further assay deals with T1, 5-HT2C edited (accession number AAF35842.1). Description: biochemical. The format is binding.
Target sequence in this assay (P28335 whole entry I156V/N158S/I160V, looked up): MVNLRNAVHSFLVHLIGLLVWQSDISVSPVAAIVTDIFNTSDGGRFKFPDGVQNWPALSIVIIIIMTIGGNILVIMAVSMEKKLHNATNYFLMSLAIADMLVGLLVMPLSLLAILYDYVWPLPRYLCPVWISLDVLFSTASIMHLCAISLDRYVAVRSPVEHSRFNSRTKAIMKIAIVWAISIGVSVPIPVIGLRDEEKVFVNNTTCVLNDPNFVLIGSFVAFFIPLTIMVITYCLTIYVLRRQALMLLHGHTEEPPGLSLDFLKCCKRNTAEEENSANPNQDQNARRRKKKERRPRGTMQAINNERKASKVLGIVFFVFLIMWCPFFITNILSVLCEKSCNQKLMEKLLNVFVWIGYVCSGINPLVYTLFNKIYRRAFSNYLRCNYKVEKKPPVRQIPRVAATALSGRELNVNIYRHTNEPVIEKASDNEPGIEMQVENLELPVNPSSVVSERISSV
What is called IC50 is the concentration at which inhibition is half-maximal. Read a low IC50 as inhibition by little substance. Regarding `CN(C)CC(=O)n1ccc2cc(F)ccc21` [Example 43, 2-(dimethylamino)-1-(5-fluoro-1H-indol-1-yl)ethan-1-one], the IC50 is more than 10 µM.
Compound `COc1ccc2c(ccn2[C@H]2C[C@@H](N(C)C)C2)c1` [Example 24, (1s,3s)-3-(5-methoxy-1H-indol-1-yl)-N,N-dimethylcyclobutan-1-amine] gave an IC50 of 1 to 10 µM.
Take `COc1ccc2c(ccn2C(=O)[C@@H](C)N(C)C)c1` [Example 47, (R)-2-(dimethylamino)-1-(5-methoxy-1H-indol-1-yl)propan-1-one]: the IC50 is more than 10 µM.
The compound `COc1ccc2c(ccn2C[C@@H](C)N(C)C)n1` [Example 30, (R)-1-(5-methoxy-1H-pyrrolo[3,2-b]pyridin-1-yl)-N,N-dimethylpropan-2-amine] had an IC50 of more than 10 µM.
Compound `CN[C@H](C)Cn1ccc2nc(OC)ccc21` [Example 29, (R)-1-(5-methoxy-1H-pyrrolo[3,2-b]pyridin-1-yl)-N-methylpropan-2-amine] registered a half-inhibitory concentration (IC50) of more than 10 µM.
